Test results taken from paper PMC7923178, “Binding of Amyloid β(1–42)-Calmodulin Complexes to Plasma Membrane Lipid Rafts in Cerebellar Granule Neurons Alters Resting Cytosolic Calcium Homeostasis” (International Journal of Molecular Sciences, 2021).

Tests used:
[1] = tested on: L-type calcium channels (LTCCs); experiment: LTCC contribution to resting cytosolic calcium (nifedipine-sensitive Fura-2 ratio)
[2] = tested on: mature CGN; experiment: Resting cytosolic calcium, Fura-2 ratio (340/380) imaging; assay type: cell-based, rat; settings: 2 μM, 2–5 h incubation; MLocke's K25 medium; control 160 ± 30 nM
[3] = tested on: calmodulin (CaM); experiment: Co-immunoprecipitation of CaM with anti-Aβ antibody in CGN lysates; assay type: binding, rat; settings: CGN lysates treated with 10 mM methyl-β-cyclodextrin 30 min, western blot
[4] = tested on: neurons; settings: small oligomeric states of the peptide; cited from earlier work
[5] = tested on: mature CGN; experiment: Internalization of Aβ(1–42) in mature CGN by fluorescence microscopy; settings: 2 h incubation with 2 µM Aβ in extracellular medium (1.8 μM Aβ(1–42) plus 0.2 μM HiLyte-Fluor555 derivative), 37 °C, 5% CO2, assuming equal internalization rate, 102 cells
[6] = tested on: calmodulin (CaM); experiment: Aβ(1–42) binding capacity of CaM in CGN, from western blot quantification of CaM; parameters: species or system rat; settings: per Petri plate with […] 10^6 CGN cells (56 ± 6 picomoles CaM per plate); Aβ(1–42) largely dimers
[7] = molecular target: purified calmodulin (CaM); settings: previous work, read-out: dissociation constant of the complex with purified CaM; cited from earlier work
Source text: Lipid rafts are a primary target in studies of amyloid β (Aβ) cytotoxicity in neurons. Exogenous Aβ peptides bind to lipid rafts, which in turn play a key role in Aβ uptake, leading to the formation of neurotoxic intracellular Aβ aggregates. On the other hand, dysregulation of intracellular calcium homeostasis in neurons has been observed in Alzheimer’s disease (AD). […] In this work, to experim ... || Dysregulation of intracellular calcium homeostasis in neurons is a common metabolic feature in both sporadic and familial forms of AD, which by itself can account for enhanced intraneuronal Aβ production and tau hyperphosphorylation potentiation. […] The ... || (+ 1 further places)

Row | Molecule | difference between the ratio 340/380 in the absence and presence of nifedipine ([1]; CGN non-treated with amyloid β(1–42), nifedipine 2 μM or 10 µM) | blockade of Ca2+ entry in the soma ([1]; nifedipine 10 µM, untreated and Aβ-treated cells) | [Ca^2+]i [2] | co-immunoprecipitation of CaM with anti-Aβ(1–42) antibody [3] | half-time of internalization in neurons [4] | intracellular (internalized) concentration of Aβ monomers [5] | Aβ(1–42) that can be bound by CaM in CGN [6] | Kd [7] | inhibition of LTCC activity ([1]; 2 µM (monomers) in medium, 2 h incubation of mature CGN) | IC50 ([1]; read-out: concentration of internalized Aβ(1–42) dimers that inhibited by 50% the LTCC's activity, internalized dimers after 2 h with 2 µM monomers)
1 | COC(=O)C1=C(C)NC(C)=C(C(=O)OC)C1c1ccccc1[N+](=O)[O-] [nifedipine, Nifedipine] | 0.64 | totally blocks |  |  |  |  |  |  |  | 
2 | Aβ(1–42): Unlabeled amyloid β(1–42) peptide synthesized and supplied by StabVida |  |  | 71 ± 7 nM | co-immunoprecipitation of CaM with the anti-Aβ(1–42) antibody | 12 to 14 h | 193 ± 21 nM | up to 120 ± 13 picomoles of Aβ(1–42) /2.5 × 10^6 cells | ~1 nM | about 50% | < 100 nM
3 | Aβ(25–35): amyloid β peptide fragment 25–35, cited from previous work (GSNKGAIIGLM; Amyloid-beta protein 42; UniProt P05067 696-706, looked up, fragment) |  |  |  |  |  |  |  | ~1 nM |  | 
